{"source": "patent US20150158868A1", "about": "“COMPOUNDS USEFUL AS INHIBITORS OF ATR KINASE” (Vertex Pharmaceuticals Incorporated, priority 2013, published 2015)", "key": {"[1]": {"molecular_target": "T1, ATR kinase, in the presence of partner proteins ATRIP, CLK2 and TopBP1 (Homo sapiens, UniProt Q13535)", "T1 construct": "in the presence of 4 nM full-length ATR, 40 nM full-length ATRIP", "T1 sequence (Q13535 whole entry)": "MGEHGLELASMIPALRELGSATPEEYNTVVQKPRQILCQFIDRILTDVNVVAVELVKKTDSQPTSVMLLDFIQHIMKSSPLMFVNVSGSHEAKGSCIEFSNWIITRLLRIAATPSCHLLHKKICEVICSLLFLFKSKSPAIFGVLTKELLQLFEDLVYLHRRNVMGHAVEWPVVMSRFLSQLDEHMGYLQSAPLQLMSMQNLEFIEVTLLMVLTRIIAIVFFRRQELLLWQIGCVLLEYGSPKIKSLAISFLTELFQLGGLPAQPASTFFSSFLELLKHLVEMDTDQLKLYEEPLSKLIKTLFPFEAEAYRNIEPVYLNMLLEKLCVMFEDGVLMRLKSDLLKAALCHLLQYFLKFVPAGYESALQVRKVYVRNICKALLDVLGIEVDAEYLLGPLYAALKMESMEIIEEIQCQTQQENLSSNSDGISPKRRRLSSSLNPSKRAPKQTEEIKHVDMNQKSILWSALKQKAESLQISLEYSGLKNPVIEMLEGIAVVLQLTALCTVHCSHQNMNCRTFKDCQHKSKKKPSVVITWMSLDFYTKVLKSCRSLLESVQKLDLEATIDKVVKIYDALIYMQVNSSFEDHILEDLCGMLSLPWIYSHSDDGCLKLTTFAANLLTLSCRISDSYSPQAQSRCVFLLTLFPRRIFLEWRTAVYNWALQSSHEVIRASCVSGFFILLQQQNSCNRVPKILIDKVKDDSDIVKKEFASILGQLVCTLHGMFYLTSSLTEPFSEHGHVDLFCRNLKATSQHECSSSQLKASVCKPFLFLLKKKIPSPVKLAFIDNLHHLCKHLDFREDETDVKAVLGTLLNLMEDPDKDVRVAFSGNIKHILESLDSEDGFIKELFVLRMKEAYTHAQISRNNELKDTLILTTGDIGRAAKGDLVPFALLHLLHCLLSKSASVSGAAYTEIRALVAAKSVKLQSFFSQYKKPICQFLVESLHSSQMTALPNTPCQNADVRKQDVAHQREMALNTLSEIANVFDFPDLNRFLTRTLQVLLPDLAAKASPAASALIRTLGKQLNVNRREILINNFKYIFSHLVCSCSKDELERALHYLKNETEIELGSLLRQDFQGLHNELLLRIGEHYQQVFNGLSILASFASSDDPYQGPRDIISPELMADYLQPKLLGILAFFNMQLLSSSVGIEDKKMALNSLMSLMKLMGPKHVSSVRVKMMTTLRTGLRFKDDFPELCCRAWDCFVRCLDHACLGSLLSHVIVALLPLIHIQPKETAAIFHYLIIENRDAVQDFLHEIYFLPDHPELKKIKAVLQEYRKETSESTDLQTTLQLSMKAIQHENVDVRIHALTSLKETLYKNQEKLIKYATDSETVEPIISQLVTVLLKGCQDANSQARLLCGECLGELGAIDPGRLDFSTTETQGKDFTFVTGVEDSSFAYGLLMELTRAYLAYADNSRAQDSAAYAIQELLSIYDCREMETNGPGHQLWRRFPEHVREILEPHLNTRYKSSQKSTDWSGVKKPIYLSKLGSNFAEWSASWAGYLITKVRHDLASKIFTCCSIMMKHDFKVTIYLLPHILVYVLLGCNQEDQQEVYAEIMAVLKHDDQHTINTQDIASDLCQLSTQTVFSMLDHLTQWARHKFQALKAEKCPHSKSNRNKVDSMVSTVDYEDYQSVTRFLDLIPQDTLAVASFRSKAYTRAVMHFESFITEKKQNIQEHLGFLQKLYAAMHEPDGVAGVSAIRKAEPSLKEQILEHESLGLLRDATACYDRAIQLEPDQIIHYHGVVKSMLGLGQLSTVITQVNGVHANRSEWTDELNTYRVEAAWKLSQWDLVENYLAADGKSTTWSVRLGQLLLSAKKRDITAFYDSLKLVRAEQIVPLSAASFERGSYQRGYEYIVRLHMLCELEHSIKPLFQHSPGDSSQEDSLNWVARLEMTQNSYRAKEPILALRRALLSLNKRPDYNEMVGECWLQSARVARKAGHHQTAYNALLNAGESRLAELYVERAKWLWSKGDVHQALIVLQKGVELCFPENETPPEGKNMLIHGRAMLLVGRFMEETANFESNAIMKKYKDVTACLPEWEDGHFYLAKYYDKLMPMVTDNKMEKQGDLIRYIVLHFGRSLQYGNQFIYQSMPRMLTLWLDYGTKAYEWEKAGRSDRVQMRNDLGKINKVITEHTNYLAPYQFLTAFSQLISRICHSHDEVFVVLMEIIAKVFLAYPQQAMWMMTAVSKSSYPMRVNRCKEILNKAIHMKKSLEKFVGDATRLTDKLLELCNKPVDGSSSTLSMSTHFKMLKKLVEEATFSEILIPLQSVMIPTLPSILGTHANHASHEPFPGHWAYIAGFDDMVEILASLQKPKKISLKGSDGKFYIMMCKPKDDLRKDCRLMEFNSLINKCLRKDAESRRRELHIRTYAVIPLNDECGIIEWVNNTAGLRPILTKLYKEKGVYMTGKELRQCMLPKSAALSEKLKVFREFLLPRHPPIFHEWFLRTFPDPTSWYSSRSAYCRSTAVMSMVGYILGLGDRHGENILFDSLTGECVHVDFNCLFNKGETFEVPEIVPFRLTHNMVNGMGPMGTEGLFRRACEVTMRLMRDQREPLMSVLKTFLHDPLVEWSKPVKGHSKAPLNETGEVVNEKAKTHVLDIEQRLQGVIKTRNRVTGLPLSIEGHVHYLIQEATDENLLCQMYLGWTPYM", "T1 sequence (Q8WXE1 whole entry partner)": "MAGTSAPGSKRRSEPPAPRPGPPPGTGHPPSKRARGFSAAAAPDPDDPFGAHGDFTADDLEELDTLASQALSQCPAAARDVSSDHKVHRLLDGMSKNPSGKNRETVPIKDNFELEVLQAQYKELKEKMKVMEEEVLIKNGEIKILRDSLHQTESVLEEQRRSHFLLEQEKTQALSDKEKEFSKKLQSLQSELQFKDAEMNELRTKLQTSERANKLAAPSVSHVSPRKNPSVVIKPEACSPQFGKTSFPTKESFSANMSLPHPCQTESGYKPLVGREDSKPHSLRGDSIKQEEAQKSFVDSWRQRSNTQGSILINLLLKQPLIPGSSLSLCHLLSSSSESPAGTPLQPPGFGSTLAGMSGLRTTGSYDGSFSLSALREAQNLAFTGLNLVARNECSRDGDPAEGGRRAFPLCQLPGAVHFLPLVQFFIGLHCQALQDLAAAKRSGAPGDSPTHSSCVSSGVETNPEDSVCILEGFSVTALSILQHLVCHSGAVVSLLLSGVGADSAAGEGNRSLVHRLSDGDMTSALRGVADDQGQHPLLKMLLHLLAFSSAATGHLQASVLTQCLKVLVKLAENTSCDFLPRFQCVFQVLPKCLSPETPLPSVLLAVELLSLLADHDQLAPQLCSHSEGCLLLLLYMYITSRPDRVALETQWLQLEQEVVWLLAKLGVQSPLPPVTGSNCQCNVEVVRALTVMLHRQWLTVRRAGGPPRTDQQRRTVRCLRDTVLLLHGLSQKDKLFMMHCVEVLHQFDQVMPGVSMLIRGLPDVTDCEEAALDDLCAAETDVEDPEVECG", "T1 sequence (Q92547 978-1192 partner limits assumed)": "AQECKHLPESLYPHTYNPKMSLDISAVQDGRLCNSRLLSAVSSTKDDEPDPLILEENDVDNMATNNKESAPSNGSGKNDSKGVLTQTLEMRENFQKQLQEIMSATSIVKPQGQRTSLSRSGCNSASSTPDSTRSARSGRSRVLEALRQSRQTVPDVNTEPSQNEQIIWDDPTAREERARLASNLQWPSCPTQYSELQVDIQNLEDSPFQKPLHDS", "assay": "ATR-Complex Inhibition Assay (radioactive-phosphate incorporation)", "format": "biochemical", "settings": "Ki(app); 4 nM full-length ATR with ATRIP, CLK2 and TopBP1(A891-S1105), 10 μM ATP, 25° C.", "protocol": "Compounds were screened for their ability to inhibit ATR kinase, in the presence of partner proteins ATRIP, CLK2 and TopBP1, using a radioactive-phosphate incorporation assay. Assays were carried out in a mixture of 50 mM Tris/HCl (pH 7.5), 10 mM MgCl2 and 1 mM DTT. Final substrate concentrations were 10 μM [g-33P]ATP (3.5 μCi 33P ATP/nmol ATP, Perkin Elmer, Massachusetts, USA) and 800 μM target peptide (ASELPASQPQPFSAKKK, Isca Biochemicals, Cambridgeshire, UK).\nAssays were carried out at 25° C. in the presence of 4 nM full-length ATR, 40 nM full-length ATRIP, 40 nM full-length CLK2 and 600 nM TopBP1(A891-S1105). An enzyme stock buffer solution was prepared containing all of the reagents listed above, with the exception of target peptide, ATP and the test compound of interest. This enzyme stock was pre-incubated for 30 minutes at 25° C. 8.5 μL of the enzyme stock solution was placed in a 96-well plate followed by addition of 5 μl of target peptide and 2 μL of DMSO stock containing serial dilutions of the test compound (typically starting from a final concentration of 1.5 μM with 2.5-fold serial dilutions) in duplicate (final DMSO concentration 7%). The plate was pre-incubated for 10 minutes at 25° C. and the reaction initiated by addition of 15 μL [g-33P]ATP (final concentration 10 μM).\nThe reaction was stopped after […] by the addition of 30 μL 0.3 M phosphoric acid containing 2 mM ATP. A phosphocellulose filter 96-well plate (Multiscreen HTS MAPHNOB50, Merck-Millipore, Massachusetts, USA) was pretreated with 100 μL 0.1 M phosphoric acid prior to the addition of 45 μL of the stopped assay mixture. The plate was washed with 5×200 μL 0.1 M phosphoric acid. […]\nAfter removing mean background values for all of the data points, Ki(app) data were calculated from non-linear regression analysis of the initial rate data using the Prism software package (GraphPad Prism version 6.0c for Macintosh, GraphPad Software Inc., San Diego, USA). […]"}, "[2]": {"system": "HCT116 colorectal cancer cells", "assay": "Cisplatin Sensitization Assay (96 h cell viability MTS)", "format": "cell-based", "settings": "concentration of compound required to reduce the IC50 of Cisplatin alone by at least 3-fold; HCT116, 96 h MTS", "protocol": "Compounds can be screened for their ability to sensitize HCT116 colorectal cancer cells to Cisplatin using a 96 h cell viability (MTS) assay. […] Compounds and Cisplatin are then both added simultaneously to the cell media in 2-fold serial dilutions from a top final concentration of 10 μM as a full matrix of concentrations in a final cell volume of 200 μl, and the cells are then incubated at 37° C. in 5% CO2. After 96 h, 40 μl of MTS reagent (Promega G358a) is added to each well and the cells are incubated for 1 h at 37° C. in 5% CO2. Finally, absorbance is measured at 490 nm using a SpectraMax Plus 384 reader (Molecular Devices) and the concentration of compound required to reduce the IC50 of Cisplatin alone by at least 3-fold (to 1 decimal place) can be reported.\nCompounds with a Cisplatin sensitization value of <0.02 μM are marked with “+++.” Compounds with a Cisplatin sensitization value >0.02 μM but <0.2 μM are marked with “++.” Compounds with a Cisplatin sensitization value >0.2 μM but <5 μM are marked with “+.”"}, "[3]": {"molecular_target": "T2, ATR kinase (full-length ATR) (Homo sapiens, UniProt Q13535)", "T2 construct": "Assays were carried out at 25° C. in the presence of 5 nM full-length ATR", "T2 sequence (Q13535 whole entry)": "as the sequence (Q13535 whole entry) above", "assay": "ATR Inhibition Assay (radioactive-phosphate incorporation)", "format": "biochemical", "settings": "Ki(app); 5 nM full-length ATR, 10 μM ATP, 25° C.", "protocol": "Compounds were screened for their ability to inhibit ATR kinase using a radioactive-phosphate incorporation assay. Assays were carried out in a mixture of 50 mM Tris/HCl (pH 7.5), 10 mM MgCl2 and 1 mM DTT. Final substrate concentrations were 10 μM [γ-33P]ATP (3 mCi 33P ATP/mmol ATP, Perkin Elmer) and 800 μM target peptide (ASELPASQPQPFSAKKK).\nAssays were carried out at 25° C. in the presence of 5 nM full-length ATR. An assay stock buffer solution was prepared containing all of the reagents listed above, with the exception of ATP and the test compound of interest. 13.5 μL of the stock solution was placed in a 96 well plate followed by addition of 2 μL of DMSO stock containing serial dilutions of the test compound (typically starting from a final concentration of 15 μM with 3-fold serial dilutions) in duplicate (final DMSO concentration 7%). The plate was pre-incubated for 10 minutes at 25° C. and the reaction initiated by addition of 15 μL [γ-33P]ATP (final concentration 10 μM).\nThe reaction was stopped after 24 hours by the addition of 30 μL 0.1M phosphoric acid containing 2 mM ATP. A multiscreen phosphocellulose filter 96-well plate (Millipore, Cat no. MAPHN0B50) was pretreated with 100 μL 0.2M phosphoric acid prior to the addition of 45 μL of the stopped assay mixture. The plate was washed with 5×200PL 0.2M phosphoric acid. After drying, 100 μL Optiphase ‘SuperMix’ liquid scintillation cocktail (Perkin Elmer) was added to the well prior to scintillation counting (1450 Microbeta Liquid Scintillation Counter, Wallac).\nAfter removing mean background values for all of the data points, Ki(app) data were calculated from non-linear regression analysis of the initial rate data using the Prism software package (GraphPad Prism version 3.0cx for Macintosh, GraphPad Software, San Diego Calif., USA).\nCompounds with a Ki value of <0.01 μM are marked with “+++.” Compounds with a Ki value >0.01 μM but <1 μM are marked with “++.” Compounds with a Ki value >1 μM but <5 μM are marked with “+.”"}}, "data": [{"smiles": "CCOc1ccncc1NC(=O)c1c(N)nn2ccccc12", "note": "[I-B-1, 2-amino-N-(4-ethoxypyridin-3-yl)pyrazolo[1,5-a]pyridine-3-carboxamide]", "values": [{"measurement": "Ki", "setting": "[1]", "result": "< 10", "unit": "nM"}, {"measurement": "Cisplatin Sensitization Assay", "setting": "[2]", "result": "+++ (Compounds with a Cisplatin sensitization value of <0.02 μM)"}, {"measurement": "Ki", "setting": "[3]", "result": "10 to 1000", "unit": "nM"}]}, {"smiles": "CN1CCN(C(=O)C2CCN(c3c(F)cncc3NC(=O)c3c(N)nn4ccccc34)CC2)CC1", "note": "[I-B-3, 2-amino-N-(5-fluoro-4-(4-(4-methylpiperazine-1-carbonyl)piperidin-1-yl)pyridin-3-yl)pyrazolo[1,5-a]pyridine-3-carboxamide]", "values": [{"measurement": "Ki", "setting": "[1]", "result": "< 10", "unit": "nM"}, {"measurement": "Cisplatin Sensitization Assay", "setting": "[2]", "result": "+ (Compounds with a Cisplatin sensitization value >0.2 μM but <5 μM)"}, {"measurement": "Ki", "setting": "[3]", "result": "1000 to 5000", "unit": "nM"}]}, {"smiles": "CN1CCC(Oc2ccncc2NC(=O)c2c(N)nc3ccc(C(F)(F)F)nn23)CC1", "note": "[I-A-2, 2-amino-N-(4-((1-methylpiperidin-4-yl)oxy)pyridin-3-yl)-6-(trifluoromethyl)imidazo[1,2-b]pyridazine-3-carboxamide]", "values": [{"measurement": "Cisplatin Sensitization Assay", "setting": "[2]", "result": "++ (Compounds with a Cisplatin sensitization value >0.02 μM but <0.2 μM)"}, {"measurement": "Ki", "setting": "[3]", "result": "10 to 1000", "unit": "nM"}]}, {"smiles": "CN1CCN(C(=O)C2CCN(c3c(F)cncc3NC(=O)c3c(N)nc4cccnn34)CC2)CC1", "note": "[I-A-3, 2-amino-N-(5-fluoro-4-(4-(4-methylpiperazine-1-carbonyl)piperidin-1-yl)pyridin-3-yl)imidazo[1,2-b]pyridazine-3-carboxamide]", "values": [{"measurement": "Cisplatin Sensitization Assay", "setting": "[2]", "result": "+++ (Compounds with a Cisplatin sensitization value of <0.02 μM)"}, {"measurement": "Ki", "setting": "[3]", "result": "10 to 1000", "unit": "nM"}]}, {"smiles": "CN1CCC(Oc2ccncc2NC(=O)c2c(N)nc3cccnn23)CC1", "note": "[I-A-1, 2-amino-N-(4-((1-methylpiperidin-4-yl)oxy)pyridin-3-yl)imidazo[1,2-b]pyridazine-3-carboxamide]", "values": [{"measurement": "Ki", "setting": "[1]", "result": "< 10", "unit": "nM"}, {"measurement": "Cisplatin Sensitization Assay", "setting": "[2]", "result": "++ (Compounds with a Cisplatin sensitization value >0.02 μM but <0.2 μM)"}, {"measurement": "Ki", "setting": "[3]", "result": "10 to 1000", "unit": "nM"}]}]}
